# Experimental data from patent US12551438B2, “Nanobowl-supported drug-loaded liposome, preparation method therefor and application thereof” (priority 2020, dated 2026).
# Structures can show the parent of a compound that is named as a salt.
# Columns and labels:
# [1] = tested on: 4T1 breast cancer cells; assay: Cell viability by CCK-8 method; format: cell-based, mouse; conditions: 4T1 cells, doxorubicin 0.01-10.00 μg/mL, 48 h
# Protocol: [formula] • 5) collecting the nanobowls@Dox-liposomes at each time point by centrifugation (24000 g, 15 min) and determining the particle size and potential by DLS after redispersion. 1.2. […] Incubating the culture plate in a 37° C., 5% CO2 constant temperature cell incubator for 12 h; 2) preparing different nanoparticle structures in a serum-free culture medium with a drug concentration gradient to prepare a culture medium containing different concentrations of liquid medicine, sucking out the old culture medium in the culture plate, and then adding 200 μL of a new culture medium containing the liquid medicine to each well; • 3) placing the 96-well plate containing cells in a 37° C., 5% CO2 constant temperature cell incubator for culture for appropriate time; • 4) diluting CCK-8 liquid with serum-free culture medium by a factor of 10 according to 1:10, sucking out the old culture medium in the culture plate, and adding 100 μL culture medium containing CCK-8 into each well; • 5) incubating the culture plate in a 37° C., 5% CO2 constant temperature cell incubator for 0.5-1 h; • 6) determining the absorbance of each well with a microplate reader at a wavelength of 450 nm. […]
# [2] = tested on: 4T1 breast cancer
# Protocol: • 1) 4T1 cell culture solution: DMEM basal medium, 1 penicillin streptomycin double antibody, 10% fetal bovine serum; • 2) 4% paraformaldehyde solution: with PBS (0.01 M) of pH 7.4 as the solvent, weighing 40 g of paraformaldehyde and placing into 800 mL of PBS solution, shaking and dissolving in a constant temperature shaker at 60° C. overnight; after the solid of paraformaldehyde is completely dissolved, stopping heating, balancing to room temperature, and adding PBS again to dilute the volume to 1 L; • 3) 1% sodium pentobarbital anesthetic: weighing 100 mg pentobarbital sodium, adding into 10 mL ultrapure water, and vortexing until it is fully dissolved. II. Experimental Method 1. Establishment of Orthotopic Inoculation Model for 4T1 Breast Cancer 1.1 Preparation of 4T1 Cell Suspension • 1) Taking a T-75 culture flask containing 4T1 cells, using a pipette to suck out the cell culture solution in the culture flask, and adding 5 mL of DPBS to rinse for 1-2 times to remove the residual culture solution; • 2) adding 2 mL of 0.25% trypsin, shaking the culture flask back and forth, so that the trypsin uniformly covers the bottom surface of the culture flask, and incubating in a constant temperature incubator containing 5% CO2 at 37° C. for 3 min; • 3) adding 10 mL serum-free cell culture medium, diluting trypsin and stop digestion; • 4) using a pipette to blow and beat the cell suspension to evenly disperse it to obtain a single cell suspension, taking 5 μL of cell suspension and adding placental blue dye solution with the same volume, and using an Invitrogen life countess cell counter to count the cells of cell suspension; • 5) centrifuging at 4° C. and 800 g for 5 min, discarding the supernatant, adding an appropriate amount of serum-free cell culture medium according to the intracellular concentration calculated previously, gently blowing and beating the cell block with a pipette to fully disperse it to prepare a single cell suspension, and the final concentration of cell suspension is: 1.6×10^7/mL; • 6) dispensing the 4T1 cell suspension into sterile 2 mL centrifuge tubes and storing at 4° C. until use. 1.2 BALB/c Female Mice Inoculated Orthotopically with 4T1 Cells • 1) On the day before inoculation, removing the hair on the right side of the abdomen of the mice to prepare the skin for the next day surgery; • 2) the next day, injecting the skin-prepared mice intraperitoneally with 1% pentobarbital anesthetic 100 μL; • 3)after complete anesthesia, fixing the limbs, wetting the right side of the abdomen with normal saline, and then using a scalpel to make a light incision on the abdomen; • 4) using tweezers to clamp out the 4th mammary fat pad located at the root of right thigh, and injecting 50 μL of 4T1 single cell suspension prepared above; • 5) loosening the tweezers, positioning the fat pad, and then suturing the abdominal wound; • 6) at the end of inoculation, returning the mice to their cages and the front leg of each mouse was taped with a label tape. 2. Animal Grouping and Dosing Regimen • 1) four days after inoculation, tumor volume was determined using vernier calipers: the longest and shortest diameters (L, W) of the tumor were measured every other day, and the tumor volume was calculated according to the following formula:
# [formula] • 2) after the tumor volume grew to 80 mm^3, it was evenly divided into the following 5 experimental groups according to the size of tumor volume: • (1) Saline group (Saline) • (2) Blank nanobowls@liposomes group (NB@LP) • (3) Doxorubicin hydrochloride group (Dox) • (4) Common Dox-liposome group (DLP) • (5) Nanobowls@Dox-liposome group (NB@DLP) • 3) On the 8th, 11th and 14th day after inoculation, the corresponding drugs were intravenously injected into the tail vein of each experimental group, and the corresponding drugs were administered to each group at a dose of 4 mg/kg of doxorubicin. 3.
# [3] = tested on: 4T1 tumor tissue; assay: TUNEL and PCNA immunohistochemical staining of tumor tissue of 4T1 tumor-bearing mice; format: in vivo, mouse; conditions: tumor tissue after treatment
# Text: (§1) [formula] • 2) after the tumor volume grew to 80 mm^3, it was evenly divided into the following 5 experimental groups according to the size of tumor volume: • (1) Saline group (Saline) • (2) Blank nanobowls@liposomes group (NB@LP) • (3) Doxorubicin hydrochloride group (Dox) • (4) Common Dox-liposome group (DLP) • (5) Nanobowls@Dox-liposome group (NB@DLP) • 3) On the 8th, 11th and 14th day after inoculation, the corresponding drugs were intravenously injected into the tail vein of each experimental group, and the corresponding drugs were administered to each group at a dose of 4 mg/kg of doxorubicin. 3. Monitoring of Mouse Body Weight and Tumor Volume • 1) determining body weight and tumor length and diameter every 2 days after the first dose of group, calculating tumor volume, and recording and summarizing all results; • 2) using GraphPad Prism 7.0 medical mapping software for data induction, statistical analysis, and making charts. 4. Immunohistochemical Staining of Tissue Sections • 1) after the last intravenous administration, selecting several mice in each experimental group, after sacrifice, dissecting and removing tumor tissues and important organs of mice, and fully immersing in 4% paraformaldehyde solution for fixation; • 2) during fixation, replacing fresh 4% paraformaldehyde solution several times to wash out residual blood. […]
# [4] = tested on: important organs of tumor-bearing mice; conditions: mouse, in vivo
# Text: as §1
structure (smiles),measurement,setting,value
"COc1cccc2c1C(=O)c1c(O)c3c(c(O)c1C2=O)C[C@@](O)(C(=O)CO)C[C@@H]3O[C@H]1C[C@H](N)[C@H](O)[C@H](C)O1 [Dox, doxorubicin hydrochloride]",effect on cell viability,[1],significantly stronger than that of common Dox-liposomes and nanobowls@Dox-liposomes
same,tumor volume growth,"[2]; 4 mg/kg doxorubicin i.v. tail vein, days 0, 3 and 6",could not achieve the expected treatment of tumor
same,median survival time,[2]; 4T1 breast cancer mice,27 days
same,Median survival,"[2]; 4T1 breast cancer mice, 4 mg/kg doxorubicin i.v. x3",27 days
same,Prolong duration,[2]; median survival versus saline,3 days
same,Prolonged rate (%),[2]; median survival versus saline control,12.50%
same,body weight of mice during administration,"[2]; mouse, in vivo",significant decrease
same,prolongation of median survival time compared with the control group,[2]; versus saline control,3 days
same,effect of promoting tumor cell apoptosis (TUNEL) and inhibiting proliferation (PCNA),[3],worst effect
same,toxicity to the heart (pathological sections),[4],"more toxic to the heart, leading to the lysis and rupture of cardiomyocytes"
